In ChEMBL document CHEMBL3507680, “University of Dundee, Gates Library screen for HepG2 cell viability”:

Test: Human HepG2 cell viability assay in 384 well format
Assay type: toxicity, cell-based
Parameters: dose 125 nL, time 70.5 hour; cytotoxicity at 70.5 h: concentration not given beside the values
Details: HepG2 cells, read-out: Inhibition

| Structure (SMILES) | cytotoxicity at 70.5 h [%] |
| --- | --- |
| Cc1ncc(CN2CC[C@@](C)(O)[C@H](Oc3cccc(F)c3)C2)cn1 | 14.8 |
| O=C(c1ccc2c(c1)CCC2)N1CC[C@H](O)[C@]2(CCCO2)C1 | -0.381 |
| C[C@]1(O)CCN(Cc2nccs2)C[C@@H]1Oc1cccc(F)c1 | -3.49 |
| CO[C@H]1CN(C(=O)c2ccc3oc(C)cc3c2)C[C@@]12CCCO2 | -3.4 |
| C[C@@]1(O)CCN(Cc2cc[nH]n2)C[C@H]1Oc1cccc(F)c1 | -2.59 |
| C[C@]1(O)CN(Cc2ncc[nH]2)CC[C@@H]1Oc1cccc(F)c1 | -1.65 |
| C[C@]1(O)CN(Cc2cscn2)CC[C@@H]1Oc1cccc(F)c1 | -3.07 |
| Cn1ccnc1CN1CCC(Cc2ccccn2)CC1 | 17.2 |
| Nc1ncnc2c1ncn2[C@H]1CCN(Cc2ccsc2)CC[C@@H]1O | -6.05 |
| COCC(=O)N1CCCC1c1nccnc1Nc1nc(C)cs1 (stereo not drawn) | -7.14 |
| O=C(CCn1ncc2ccccc21)N1CCCC(Cc2cccnc2)C1 (stereo not drawn) | -5.11 |
| CC(C)(N)C(=O)N1CCC(c2nccnc2Oc2cccc(F)c2)CC1 | -10.4 |
| CC(C)(N)C(=O)N1CCC(c2nccnc2Oc2ccccc2F)CC1 | 7.72 |
| Cc1cccc(Oc2nccnc2C2CCN(C(=O)C(C)(C)N)CC2)c1 | -4.07 |
| Cc1noc(C)c1C(=O)N1CCC(c2[nH]ncc2S(C)(=O)=O)C1 (stereo not drawn) | -1.52 |
| CCn1cc(C(=O)N2CCCC(c3nccs3)C2)cn1 (stereo not drawn) | -2.34 |
| CNc1cncc(C2CCCN2C(=O)c2ccc3c(c2)OCCO3)n1 (stereo not drawn) | 20.5 |
| COCCC(=O)N1CCCC1c1nccnc1Nc1ncccn1 (stereo not drawn) | 16.8 |
| CCc1cc(C(=O)N2CCCC(Cc3ccc(NC)nn3)C2)on1 (stereo not drawn) | 50.7 |
| CCCC1c2cccn2CCN1C(=O)c1cc(CC)no1 (stereo not drawn) | -2.22 |

| Structure (SMILES) | cytotoxicity at 70.5 h [%] |
| --- | --- |
| Cc1csc2c(=O)n3c(nc12)CCN(C(=O)c1ccnn1C)CC3 | -6.6 |
| Cc1csc2c(=O)n3c(nc12)CCN(C(=O)c1ccccn1)CC3 | -0.0193 |
| c1coc(-c2[nH]c3ncccc3c2CN2CCCOCC2)c1 | -4.25 |
| CN1CCN(Cc2c(-c3ccco3)[nH]c3ncccc23)CC1 | -6.17 |
| COc1cc2nc3n(c(=O)c2cc1OC)CCN(C(=O)C1CCC1)CC3 | -4.59 |
| CCCn1cc(C(=O)N2CCOC(c3nc(-c4cccs4)no3)C2)cn1 (stereo not drawn) | -4.18 |
| O=C(N[C@@H]1CN(Cc2ccc3[nH]ccc3c2)C[C@H]1O)c1cscn1 | 19.9 |
| O=C(N[C@@H]1CN(Cc2ccc(F)cc2)C[C@H]1O)c1cscn1 | -1.52 |
| Cc1cccnc1CN1CCCCC1c1ccn2ccnc2n1 (stereo not drawn) | -4.81 |
| CNc1ncccc1CN1CCCCC1c1cc(C)n2ccnc2n1 (stereo not drawn) | -5.95 |
| Cc1cc2cc(C(=O)N[C@@H]3CC[C@@H](N4CCCC4)[C@@H]3O)ccc2o1 | -5.68 |
| CCc1nccn1-c1cncc(C2CCCN2Cc2ccccc2)n1 (stereo not drawn) | -5.36 |
| CNc1nc(C2CCCCN2C(=O)COC)nc2c1CN(C)CC2 (stereo not drawn) | -9.52 |
| CNc1nc(C2CCCCN2C(=O)C(C)(C)OC)nc2c1CN(C)CC2 (stereo not drawn) | -7.36 |
| Cn1cc(C(=O)N2CCCC(Cc3cccc4ncccc34)C2)cn1 (stereo not drawn) | -3.73 |
| Cc1cncc(C2CCCN(CC3CCC3)C2)n1 (stereo not drawn) | -4.65 |
| CCc1nccn1-c1cncc(C2CCCN2CC(=O)N2CCCC2)n1 (stereo not drawn) | -3.79 |
| CCCn1cc(CN2CCC(c3[nH]ncc3S(C)(=O)=O)C2)cn1 (stereo not drawn) | -7.48 |
| Cc1ccc(-c2cc(CS(=O)(=O)NC3CCCNC3=O)on2)cc1 (stereo not drawn) | 0.495 |
| Cc1cc(CC(C)NC(=O)c2n[nH]c3c2CCC3)n[nH]1 (stereo not drawn) | 3.59 |

| Structure (SMILES) | cytotoxicity at 70.5 h [%] |
| --- | --- |
| Cc1cc(NC(=O)NCCO)nn1-c1ccc(Cl)cc1Cl | 0.498 |
| Cc1cc(NC(=O)CO)nn1-c1ccc(Cl)cc1Cl | 4.81 |
| COCCN(CCOC)C(=O)c1cnn(C)c1-n1c(C)ccc1C | 1.05 |
| CCCN(CCC)C(=O)c1cnn(C)c1C | 9.54 |
| Cc1cc(C)cc(OCCN(C)C2CCOC2=O)c1 (stereo not drawn) | 1.42 |
| CN(CCOc1ccccc1F)C1CCOC1=O (stereo not drawn) | -1.46 |
| COc1ccccc1NC(=O)CCNC(=O)c1ccoc1 | 0.887 |
| CS(=O)(=O)c1ccc(Cl)c(C(=O)NCCC2=CCCCC2)c1 | 32.9 |
| CCOC(=O)c1ccc(S(=O)(=O)NCC(CC)N2CCCC2)cc1 (stereo not drawn) | -5.87 |
| COCc1ccccc1NC(=O)c1ccoc1 | -15 |
| CC(C)CN(CC(F)(F)F)S(=O)(=O)c1cc(C(N)=O)n(C)c1 | 1.58 |
| CC(C)C1CCCN1C(=O)Nc1ccc(=O)n(C)c1 (stereo not drawn) | 15 |
| CC(=O)NCCNC(=O)NCc1ccc(-n2ccc(C(F)(F)F)n2)cc1 | -6.79 |
| COc1ccc(NCCC(=O)NCc2cccnc2N(C)C)cc1 | -8.23 |
| Cn1cc(NC(=O)N2CCCC2c2ccccn2)ccc1=O (stereo not drawn) | -5.4 |
| c1ccc2c(NC3CCc4ncnn4C3)ncnc2c1 (stereo not drawn) | -4.29 |
| CCNC(=O)NCc1ccc(-n2ccc(C(F)(F)F)n2)cc1 | -3.86 |
| Cc1nc2n(n1)CC(Nc1nc(C(F)(F)F)nc3ccccc13)CC2 (stereo not drawn) | -1.15 |
